Patent publication US20120283280A1, “IMIDAZOTETRAZINONE-BASED COMBI-MOLECULES” (priority 2011, published 2012)
“Also recorded” adds a separate entry of the source.

Assays:
[1] = Dose finding and comparative toxicity study in mice; type: in vivo; parameters: key to Vital Sign, Day 8 / Vital Sign, Day 10 / Vital Sign, Day 16 / Vital Sign, Day 1 / Vital Sign, Day 3 / Vital Sign, Day 6: Normal (i.e. No sign of Toxicity); BCS = 2: BCS (Body Condition Score) = 2 indicates that mice are underconditioned (observable signs include segmentation of the vertebral column, palpability of the dorsal pelvic bones); conditions: for Vital Sign, Day 1 / Vital Sign, Day 3 / Vital Sign, Day 6 / Vital Sign, Day 8 / Vital Sign, Day 10 / Vital Sign, Day 16: CD-1 mice (n = 6), 100 mg/kg once every other day
Source text: The results are further illustrated hereinbelow in Table 4.

DU145 cell line = test: Mouse xenograft study (DU145); conditions: for antitumor activity: DU145 xenograft, 100 mg/kg i.p. every other day, 31 days after treatment
DU145 = test: Growth inhibition assay (SRB), DU145; conditions: Homo sapiens, DU-145, 144 h, read-out: IC50 (x ± SD)
Method: (§1) Cell Culture: The human prostate cancer cell line DU145 was obtained from the American Type Culture Collection (Manassas, Va.)). The androgen-sensitive prostate cancer cell lines LNCaP-FGC, LNCaP-EGFR and LNCaP-erbB2 (stably transfected with EGFR erbB2 gene respectively) were generous gifts from Dr. Moulay Aloui-Jamali (Jewish General Hospital, Montreal, Quebec, Canada). […] The cultures were maintained in logarithmic growth by harvesting with a trypsin-EDTA solution containing 0.5 mg/mL trypsin and 0.2 mg/mL EDTA and replating before confluence. In all assays, the cells were plated over a period of time ranging from 24-48 h prior to drug administration.

LNCaP-EGFR = test: Growth inhibition assay (SRB), LNCaP-EGFR; conditions: 144 h, read-out: IC50 (x ± SD)
Method: as §1

EGFR tyrosine kinase = biological target: T1, EGFR tyrosine kinase (Homo sapiens, UniProt P00533); test: EGFR kinase enzyme assay (ELISA, PGT phosphorylation); type: biochemical; conditions: for IC50: 8 minute exposure, PGT substrate, read-out: IC50, EGFR TK inhibition
T1 construct: purchased
T1 sequence (P00533 25-1210): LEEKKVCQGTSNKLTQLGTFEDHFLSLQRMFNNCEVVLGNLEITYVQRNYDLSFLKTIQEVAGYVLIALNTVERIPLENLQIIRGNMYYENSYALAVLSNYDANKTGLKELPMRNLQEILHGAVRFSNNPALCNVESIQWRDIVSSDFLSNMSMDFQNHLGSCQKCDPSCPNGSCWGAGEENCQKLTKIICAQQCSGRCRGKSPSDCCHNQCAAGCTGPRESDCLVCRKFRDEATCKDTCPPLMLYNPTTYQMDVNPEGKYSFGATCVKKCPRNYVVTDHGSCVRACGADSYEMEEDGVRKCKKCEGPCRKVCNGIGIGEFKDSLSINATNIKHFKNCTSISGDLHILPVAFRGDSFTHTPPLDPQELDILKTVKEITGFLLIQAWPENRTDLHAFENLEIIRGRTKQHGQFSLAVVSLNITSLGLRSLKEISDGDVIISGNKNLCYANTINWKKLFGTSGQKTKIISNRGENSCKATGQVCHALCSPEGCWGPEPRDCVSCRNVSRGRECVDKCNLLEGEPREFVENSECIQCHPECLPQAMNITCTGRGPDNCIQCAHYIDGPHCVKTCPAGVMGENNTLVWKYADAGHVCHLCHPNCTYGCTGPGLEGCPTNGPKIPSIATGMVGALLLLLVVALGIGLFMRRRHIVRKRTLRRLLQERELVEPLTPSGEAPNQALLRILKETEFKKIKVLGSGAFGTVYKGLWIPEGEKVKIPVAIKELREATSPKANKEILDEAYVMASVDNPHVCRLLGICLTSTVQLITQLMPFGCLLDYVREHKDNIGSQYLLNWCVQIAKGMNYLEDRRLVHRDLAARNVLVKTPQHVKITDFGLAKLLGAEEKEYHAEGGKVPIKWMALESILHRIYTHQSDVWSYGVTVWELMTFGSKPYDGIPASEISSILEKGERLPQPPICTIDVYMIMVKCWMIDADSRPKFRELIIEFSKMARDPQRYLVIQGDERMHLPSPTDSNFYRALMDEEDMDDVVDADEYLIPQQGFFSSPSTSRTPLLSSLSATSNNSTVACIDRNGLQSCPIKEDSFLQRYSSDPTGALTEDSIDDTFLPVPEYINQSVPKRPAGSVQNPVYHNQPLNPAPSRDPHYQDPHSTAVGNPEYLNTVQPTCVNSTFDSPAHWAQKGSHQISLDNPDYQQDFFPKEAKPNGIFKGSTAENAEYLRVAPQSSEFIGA
Method: EGFR Kinase Enzyme Assay: The EGFR kinase assay was performed following a known procedure. Briefly, Nunc MaxiSorp (Nalge Nunc International, Rochester, N.Y., USA) 96-well plates were incubated overnight at 37° C. with 100 μL/well of […] poly(L-glutamic acid-L-tyrosine, 4:1) PGT in PBS. Excess PGT was removed and the plates were washed three times with wash buffer (0.1% Tween-20 in PBS). The kinase reaction was performed using commercially available isolated EGFR (4.5 ng/well). The compound was added and phosphorylation was initiated by the addition of 20 μL/well of ATP (50 μM). After 8 min at room temperature with constant shaking, the reaction was terminated by aspiration of the reaction mixture and rinsing of the plates (four times) with wash buffer. Phosphorylated PGT was detected following a 25 min incubation with 50 μL/well of horseradish peroxidase-conjugated PY20 anti-phosphotyrosine antibody (Santa Cruz Biotechnology, Santa Cruz, Calif., USA) diluted to […] in blocking buffer (3% bovine serum albumin and 0.05% Tween-20 in PBS). The antibody was removed by aspiration and the plates washed four times with wash buffer. The signals were developed by the addition of 50 μL/well of 3,3′,5,5′-tetramethylbenzidine peroxidase substrate (Kirkegaard and Perry Laboratories, Gaithersberg, Md., USA). Following blue color development, H2SO4 (50 μL; 0.09 M) was added per well to stop the reaction. The plates were read at 450 nm using a Bio-Rad ELISA reader (model 2550; Bio-Rad, Hercules, Calif., USA).
Inhibition of EGFR TK: The EGFR TK inhibitory activity of JDF12 and its metabolite JDF04R was tested in a short 8 minute exposure to an ELISA assay. The assay was based on the inhibition of phosphorylation of poly(L-glutamic acid-L-tyrosine, 4:1) (PGT) by EGFR tyrosine kinase. […] As expected, the EGFR TK-inhibitory activity of MTZ was negligible (FIG. 1).

LNCaP-ErbB2 = test: Growth inhibition assay (SRB), LNCaP-ErbB2; conditions: 144 h, read-out: IC50 (x ± SD)
Method: as §1

DU145 cells [2] = test: Alkaline comet assay for quantization of DNA damage; type: cell-based, human
Method: Alkaline Comet Assay for Quantization of DNA Damage: A modified alkaline comet assay technique was used for quantization of DNA damage induced in DU145 cells. The cells were exposed to a dose range of the drugs (JDF12, JDF04R, or MTZ) over a period of 2 h and harvested with trypsin-EDTA. The cells were subsequently collected by centrifugation and resuspended in PBS. The resulting cell suspensions were diluted to 3×10^5 cell/mL and mixed with agarose (0.75%) in PBS at 37° C. in a 1:9 dilution. The gels were cast on Gelband strips (Mandel Scientific, Guelph, Ontario, Canada) using gel casting chambers and then immediately placed into a lysis buffer (2.5 M NaCl, 0.1 M tetrasodium EDTA, 10 mM Trisbase, 1% (v/v) N-lauryl sarcosine, 10% (v/v) DMSO, and 1% (v/v) Triton X-100). After being kept overnight at 4° C., the gels were gently rinsed with distilled water and immersed in a second lysis buffer (2.5 M NaCl, 0.1 M tetrasodium EDTA, 10 mM Tris base) containing 1 mg/mL proteinase K for 60 min at 37° C. The cells were subsequently rinsed with distilled water, incubated in alkaline electrophoresis buffer for 30 min at 37° C. and electrophoresed at 400 mA for 20 min. The gels were then rinsed with distilled water and placed into 1 M ammonium acetate for 30 min. The gels were subsequently soaked in 100% ethanol for 2 h, dried overnight and stained with SYBR Gold (1:10000 dilution of stock supplied by Molecular Probes, Eugene, Oreg.) for 20 min. Comets were visualized at 330× magnification and DNA damage was assessed using the tail moment parameter (i.e. the distance between the barycenter of the head and the tail of the comet multiplied by the percentage DNA in the tail region). A minimum of 50 cell comets were analyzed for each sample, using Comet Assay χ v4.2 image analysis software, and the values presented as average tail moments for the entire cell population.
The reactive nature of the latter species makes its detection very difficult. However, the induction of DNA damage (i.e. DNA alkylation) represents evidence of its formation and fleeting presence.

[3] = biological target: T2, EGFR autophosphorylation in DU145 cells (Homo sapiens, UniProt P00533); test: EGFR phosphorylation assay, whole cell (Western blot); type: cell-based
T2 construct: endogenous in cells; host or cells: DU145
T2 sequence (P00533 25-1210): as above
Method: EGFR Phosphorylation Assay: DU145 cells (1×10^6) were preincubated in a six-well plate using 10% serum at 37° C. over a period of 24 h followed by a starving period of 24 h. The cells where then exposed to a dose range of each drug over a period of 2 h and subsequently treated with 50 ng/ml of EGF for 20 min at 37° C. The cells were washed with PBS and resuspended in cold lysis buffer [50 mmol/L Tris-HCl (pH 7.5), 150 mmol/L NaCl, 1% NP40, 1 mmol/L EDTA, 5 mmol/L NaF, 1 mmol/L Na3VO4, protease inhibitor tablet (Roche Biochemicals, Laval, Quebec, Canada)]. The lysates were kept on ice for 30 min and collected by centrifugation at 10,000 rpm for 20 min at 4° C. The concentrations of protein were determined using the Bio-Rad protein assay kit (Bio-Rad Laboratories, Hercules, Calif.). Equal amounts of protein […] were subjected to a 10% SDS-polyacrylamide gel electrophoresis (SDS-PAGE) and transferred to a polyvinylidene difluoride membrane (Millipore, Bedford, Mass.). Nonspecific binding on the membrane was minimized with a blocking buffer containing bovine serum albumin (5%) in PBS-Tween 20. The membranes were subsequently incubated with primary anti-phosphotyrosine antibody (Upstate Biotechnology, Lake Placid, N.Y.) for the detection of phosphotyrosine. The membranes were stripped and reprobed with anti-EGFR (Neomarkers, Fremont, Calif.) for determination of corresponding receptor levels. Blots were incubated with horseradish peroxidase-goat anti-mouse antibody (1:1,000 dilution; Cell Signaling Research, Beverly, Mass.), and the bands visualized with an enhanced chemiluminescence system (Amersham Pharmacia Biotech,. Little Chalfont, UK). Band intensities were measured using the SynGene GeneTools software package.
Inhibition of EGFR TK in Whole Cell Assay: DU145 cells were starved for 24 h and stimulated with EGF in the presence of the different drugs over a period of 2 h. Inhibition of autophosphorylation of EGFR was analyzed by Western blotting. The observed order of potency from this whole cell assay paralleled the one previously observed with ELISA. […]

LNCaP-WT = test: Growth inhibition assay (SRB), LNCaP-WT; conditions: 144 h, read-out: IC50 (x ± SD)
Method: as §1

[4] = system: DU145, LNCaP, LNCaPEGFR, and LNCaPerb2 cell lines; test: Growth inhibition assay (SRB), comparisons over all four cell lines; type: cell-based
Source text: Each point represents the average of at least two independent experiments run in triplicate.

DU145 cells [5] = test: Annexin V binding analysis (apoptosis); type: cell-based, human; conditions: 25 μM, 48 h exposure
Method: Annexin V binding Analysis: Cells were pre-incubated in 6-well plates until confluence and then exposed to a dose range of each drug over a period 48 h. The cells were subsequently harvested and incubated with annexin V-FITC and propidium iodide (PI) using the apoptosis Detection Kit (BD Bioscience Pharmingen, USA) and the supplier's protocol. Annexin V-FITC and PI binding were analyzed using a Becton-Dickinson FACScan. Data were collected using logarithmic amplification of both the FL1 (FITC) and FL2 (PI) channels. Quadrant analysis of coordinate dot plots was performed with CellQuest software.
Induction of Apoptosis: Annexin V-FITC (FL1-H) and PI (FL2-H) staining (detected by flow cytometry) was used to distinguish viable (PI-/FITC−), early apoptotic (PI-/FITC+), late apoptotic (PI+/FITC+) and necrotic (PI+/FITC−) cells. […] JDF04R, Iressa and MTZ however, induced only barely detectable levels of apoptosis (<10%). The results are indicative that the combined EGFR TK inhibitory and DNA damaging properties of JDF12 can induce more cell apoptosis than observed with a single-function drug (e.g. Iressa and MTZ) alone (FIG. 7a-c).

[6] = listed as Mitozolomide, 100 mg/kg

COc1cc2ncnc(Nc3ccc(F)c(Cl)c3)c2cc1OCCCN1CCOCC1 [Iressa]
Vital Sign, Day 1 [1]: Normal
Vital Sign, Day 3 [1]: Normal
Vital Sign, Day 6 [1]: Normal
Vital Sign, Day 8 [1]: Normal
Vital Sign, Day 10 [1]: Normal
Vital Sign, Day 16 [1]: Normal
toxicity at 100 mg/kg ([1]; CD-1 mice, 100 mg/kg): no signs of toxicity
antitumor activity (DU145 cell line): did not show significant antitumor activity

Nc1[nH]cnc1C(=O)Nc1ccc2ncnc(Nc3cccc(Cl)c3)c2c1 [JDF04R]
IC50 (DU145): 151 ± 17 µM
IC50 (LNCaP-EGFR): 119 ± 4.1 µM
IC50 (EGFR tyrosine kinase; ELISA): 0.23 µM
more potent EGFR TK inhibitor than JDF12 (fold) (EGFR tyrosine kinase; JDF04R vs JDF12, ELISA IC50): 2.7 fold
IC50 (LNCaP-ErbB2): 111 ± 18.1 µM
DNA damage (tail moment) (DU145 cells [2]; DU145 cells, 2 h exposure): did not demonstrate any DNA damaging activity
inhibition of EGFR TK ([3]; DU145 cells, at concentrations as low as 6 μM): ~100%
IC50 (LNCaP-WT): 178 ± 13.3 µM

O=C(Nc1ccc2ncnc(Nc3cccc(Cl)c3)c2c1)c1ncn2c(=O)n(CCCl)nnc12 [JDF12]
IC50 (DU145): 11.3 ± 0.22 µM
increased anti-proliferation potency compared to Iressa (fold) ([4]; four cell lines): 2-3 fold
increased anti-proliferation potency compared to MTZ (fold) ([4]; four cell lines): 10-16 fold
more potent than equimolar combination of MTZ with Iressa or JDF04R (fold) ([4]; four cell lines): 1.7 fold
more potent than the equieffective 2-drug combination (fold) ([4]; identical conditions): more than 1.3 fold
IC50 (LNCaP-EGFR): 12 ± 0.57 µM
IC50 (EGFR tyrosine kinase; ELISA): 0.62 µM
Vital Sign, Day 1 [1]: Normal
Vital Sign, Day 3 [1]: Normal
Vital Sign, Day 6 [1]: Normal
Vital Sign, Day 8 [1]: Normal
Vital Sign, Day 10 [1]: Normal
Vital Sign, Day 16 [1]: Normal
toxicity at 100 mg/kg ([1]; CD-1 mice, 100 mg/kg): no signs of toxicity; also recorded: minor toxicity
MTD at 14 days ([1]; male, CD-1, mouse, in vivo, mice, weight loss over a 14-day period, two animals per group, read-out: maximum tolerated dose): 100 mg/kg
IC50 (LNCaP-ErbB2): 13.3 ± 2.02 µM
weight loss during the efficacy study (DU145 cell line; CD-1 mice, 100 mg/kg, FIG. 8c): No weight loss
antitumor activity (DU145 cell line; 100 mg/kg): significant antitumor activity; also recorded: superior to that of an equidose of Iressa
DNA damage (tail moment) (DU145 cells [2]; DU145 cells, 2 h exposure): dose-dependent DNA damage
DNA damage, fold less than MTZ (DU145 cells [2]; DU145 cells, 2 h exposure): 2 fold
IC50 ([3]; DU145 cells, EGF stimulated, 2 h drug exposure): 12 µM
potency less than that of JDF04R (fold) ([3]; DU145 whole cell assay): approximately 2 fold
late apoptosis (DU145 cells [5]): significant increase in late apoptosis
IC50 (LNCaP-WT): 13.2 ± 3.88 µM

NC(=O)c1ncn2c(=O)n(CCCl)nnc12 [MTZ, 8-carbamoyl-3-(2-chloroethyl)imidazo[5,1-d]-1,2,3,5-tetrazin-4(3H)-one]
IC50 (DU145): 179 ± 21.1 µM
IC50 (LNCaP-EGFR): 176 ± 6.51 µM
EGFR TK-inhibitory activity (EGFR tyrosine kinase; ELISA, FIG. 1): negligible
Vital Sign, Day 1 [1]: Normal
Vital Sign, Day 3 [1]: Normal
Vital Sign, Day 6 [1, 6]: Weight loss > 20% (1 mouse); also recorded: Death (1 mouse); also recorded: (BCS = 2)
Vital Sign, Day 8 [1, 6]: (BCS = 2); also recorded: Weight loss > 20% (1 mouse)
Vital Sign, Day 10 [1, 6]: (BCS = 2); also recorded: Weight loss > 20% (1 mouse)
Vital Sign, Day 16 [1, 6]: (BCS = 2); also recorded: All Mice Thin; also recorded: Death (3 mice)
toxicity at 100 mg/kg ([1]; CD-1 mice, 100 mg/kg): toxic at this dose
overall body condition score (BCS) ([1]; CD-1 mice, 100 mg/kg, 6-10 days after initiating treatment): 2
IC50 (LNCaP-ErbB2): 142 ± 8.93 µM
level of DNA damage, fold higher than JDF12 (DU145 cells [2]): approximately 2 fold
IC50 (LNCaP-WT): 150 ± 7.92 µM
